Results reported in ChEMBL document CHEMBL1944569, “QSAR study and synthesis of new phenyltropanes as ligands of the dopamine transporter (DAT)” (Bioorg Med Chem, 2012).

Target: T1, Sodium-dependent dopamine transporter (Homo sapiens, UniProt Q01959)
Test: Ratio of LBT999 Ki to compound Ki for human cloned DAT receptor
Conditions: not given

T1 sequence (Q01959 whole entry): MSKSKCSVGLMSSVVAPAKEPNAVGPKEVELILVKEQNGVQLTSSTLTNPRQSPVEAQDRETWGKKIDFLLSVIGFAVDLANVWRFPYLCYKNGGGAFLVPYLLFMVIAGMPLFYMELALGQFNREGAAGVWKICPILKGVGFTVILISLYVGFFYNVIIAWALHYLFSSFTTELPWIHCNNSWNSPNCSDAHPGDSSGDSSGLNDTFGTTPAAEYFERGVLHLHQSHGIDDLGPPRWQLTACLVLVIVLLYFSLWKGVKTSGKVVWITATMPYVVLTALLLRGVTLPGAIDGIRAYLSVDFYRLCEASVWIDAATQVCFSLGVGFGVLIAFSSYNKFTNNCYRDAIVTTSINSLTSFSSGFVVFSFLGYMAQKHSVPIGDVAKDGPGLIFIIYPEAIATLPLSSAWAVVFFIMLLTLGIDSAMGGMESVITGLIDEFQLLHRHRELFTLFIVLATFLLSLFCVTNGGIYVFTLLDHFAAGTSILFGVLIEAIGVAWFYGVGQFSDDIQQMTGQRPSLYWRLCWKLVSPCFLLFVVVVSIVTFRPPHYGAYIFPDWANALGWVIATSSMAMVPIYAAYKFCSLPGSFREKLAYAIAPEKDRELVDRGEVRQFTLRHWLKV

SMILES	Ratio Ki
COC(=O)[C@H]1[C@@H](c2ccc(C)cc2)C[C@@H]2CC[C@H]1N2C/C(I)=C/C(F)(F)F	10

Target: T1, Sodium-dependent dopamine transporter
Test: Displacement of [3H]WIN35428 from human cloned DAT receptor expressed in human HEK293 cells
Type: cell-based
Conditions: read-out: Ki

SMILES	Ki [nM]
COC(=O)[C@H]1[C@@H](c2ccc(C)cc2)C[C@@H]2CC[C@H]1N2C/C=C/I	17
COC(=O)[C@H]1[C@@H](c2ccc(C)cc2)C[C@@H]2CC[C@H]1N2C/C(I)=C/C(F)(F)F	0.87
COC(=O)[C@H]1[C@@H](c2ccc(C)cc2)C[C@@H]2CC[C@H]1N2C/C=C(\I)C(F)(F)F	116

Same assay, conditions: read-out: pKi (converted)

SMILES	Ki [nM]
COC(=O)[C@H]1[C@@H](c2ccc(C(C)C)c(I)c2)C[C@@H]2CC[C@H]1N2	501
COC(=O)[C@H]1[C@@H](c2ccc(C)c(I)c2)C[C@@H]2CC[C@H]1N2	112
COC(=O)[C@H]1[C@@H](c2ccc(F)cc2)C[C@@H]2CC[C@H]1N2CCF	70.8
C=C(Br)CN1[C@H]2CC[C@@H]1[C@@H](C(=O)OC)[C@@H](c1ccc(I)cc1)C2	30.2
COC(=O)[C@H]1[C@@H](c2ccc(C)cc2)C[C@@H]2CC[C@H]1N2C/C=C/I	17
O=C(OCCF)[C@H]1[C@@H](c2cccc(/C=C\I)c2)C[C@@H]2CC[C@H]1N2	89.1
C/C=C/CN1[C@H]2CC[C@@H]1[C@@H](C(=O)OC)[C@@H](c1ccc(I)cc1)C2	15.1
COC(=O)[C@H]1[C@@H](c2ccc(Cl)c(Cl)c2)C[C@@H]2CC[C@H]1N2C/C=C/I	28.8
COC(=O)[C@H]1[C@@H](c2ccc(C(C)C)cc2)C[C@@H]2CC[C@H]1N2C/C=C/I	372
COC(=O)[C@H]1[C@@H](c2ccccc2)C[C@@H]2CC[C@H]1N2C/C=C/I	115
C#CCN1[C@H]2CC[C@@H]1[C@@H](C(=O)OC)[C@@H](c1ccc(I)cc1)C2	14.1
COC(=O)[C@H]1[C@@H](c2ccc(I)cc2)C[C@@H]2CC[C@H]1N2Cc1ccccc1C	93.3
CN1[C@H]2CC[C@@H]1[C@@H](C(=O)OCCc1ccccc1)[C@@H](c1ccc(Cl)c(Cl)c1)C2	11
COC(=O)[C@H]1[C@@H](c2ccc(Cl)c(Cl)c2)C[C@@H]2CC[C@H]1N2C	6.31
CCCCc1ccc([C@H]2C[C@@H]3CC[C@H]([C@H]2C(=O)OC)N3C)cc1	501
CCCc1ccc([C@H]2C[C@@H]3CC[C@H]([C@H]2C(=O)OC)N3C)cc1I	501
COC(=O)[C@H]1[C@@H](c2ccc(C(C)C)c(I)c2)C[C@@H]2CC[C@H]1N2C	501
CCCc1ccc([C@H]2C[C@@H]3CC[C@H]([C@H]2C(=O)OC)N3C/C=C/I)cc1	372
COC(=O)[C@H]1[C@@H](c2ccc(I)cc2)C[C@@H]2CC[C@H]1N2C/C=C/CF	0.501
Cc1ccc([C@H]2C[C@@H]3CC[C@H]([C@H]2C(=O)OCCF)N3C/C=C/I)cc1	12
CC(C)OC(=O)[C@@H]1[C@@H](OC(c2ccc(F)cc2)c2ccc(F)cc2)C[C@H]2CC[C@@H]1N2C	30.9
COC(=O)[C@H]1[C@@H](c2ccc(F)cc2)C[C@@H]2CC[C@H]1N2CCCF	47.9
COC(=O)[C@H]1[C@@H](c2ccc(C)cc2)C[C@@H]2CC[C@H]1N2C	32.4

SMILES	Ki [nM]
CCc1ccc([C@H]2C[C@@H]3CC[C@H]([C@H]2C(=O)OC)N3C)cc1	501
CCc1ccc([C@H]2C[C@@H]3CC[C@@H](N3)[C@H]2C(=O)OC)cc1I	263
COC(=O)[C@H]1[C@@H](c2ccc(I)cc2)C[C@@H]2CC[C@H]1N2C	35.5
CCCCc1ccc([C@H]2C[C@@H]3CC[C@@H](N3)[C@H]2C(=O)OC)cc1I	372
C[C@H](CF)OC(=O)[C@H]1[C@@H](c2ccc(Cl)cc2)C[C@@H]2CC[C@H]1N2C	3.24
CCCc1ccc([C@H]2C[C@@H]3CC[C@@H](N3)[C@H]2C(=O)OC)cc1I	501
C[C@@H](CF)OC(=O)[C@H]1[C@@H](c2ccc(Cl)cc2)C[C@@H]2CC[C@H]1N2C	0.676
CN1[C@@H]2CC[C@H]1[C@H](C(=O)OCc1ccccc1)[C@@H](OC(c1ccc(F)cc1)c1ccc(F)cc1)C2	49
CCc1ccc([C@H]2C[C@@H]3CC[C@H]([C@H]2C(=O)OC)N3C)cc1I	339
COC(=O)[C@H]1[C@@H](c2ccc(F)cc2)C[C@@H]2CC[C@H]1N2C/C=C/CF	9.55
COC(=O)[C@H]1[C@@H](c2ccc(C)c(I)c2)C[C@@H]2CC[C@H]1N2C	46.8
CN1[C@H]2CC[C@@H]1[C@@H](C(=O)OCc1ccccc1)[C@@H](c1ccc(Cl)c(Cl)c1)C2	34.7
O=C(OCCF)[C@H]1[C@@H](c2cccc(/C=C/I)c2)C[C@@H]2CC[C@H]1N2	275
COC(=O)[C@H]1[C@@H](c2ccc(I)cc2)C[C@@H]2CC[C@H]1N2C/C=C/I	30.2
COC(=O)[C@H]1[C@@H](c2ccccc2)C[C@@H]2CC[C@H]1N2C [TROPARIL]	33.1
CCCCc1ccc([C@H]2C[C@@H]3CC[C@H]([C@H]2C(=O)OC)N3C)cc1I	372
COC(=O)[C@H]1[C@@H](c2ccc(C(C)C)cc2)C[C@@H]2CC[C@H]1N2C	501
CN1[C@H]2CC[C@@H]1[C@@H](C(=O)OCCc1ccc(N=[N+]=[N-])c(I)c1)[C@@H](c1ccc(Cl)cc1)C2	14.1
O=C(OCCF)[C@H]1[C@@H](c2ccc(/C=C\I)cc2)C[C@@H]2CC[C@H]1N2	13.2
CCCc1ccc([C@H]2C[C@@H]3CC[C@H]([C@H]2C(=O)OC)N3C)cc1	501
COC(=O)[C@H]1[C@@H](c2ccc(I)cc2)C[C@@H]2CC[C@H]1N2CCCF [IOFLUPANE]	28.2
CC(C)OC(=O)[C@H]1[C@@H](c2ccc(Cl)c(Cl)c2)C[C@@H]2CC[C@H]1N2C	18.2
COC(=O)[C@H]1[C@@H](c2ccc(I)cc2)C[C@@H]2CC[C@H]1N2Cc1ccccc1	41.7

System: not listed separately
Test: Lipophilicity, log D of the compound in octanol-water at pH 7.4 by reverse-phase HPLC analysis
Conditions: not given

SMILES	logD
COC(=O)[C@H]1[C@@H](c2ccc(C)cc2)C[C@@H]2CC[C@H]1N2C/C=C/I	4.9
Nc1ccccc1 [ANILINE]	0.9
ClCc1ccccc1 [(CHLOROMETHYL)BENZENE]	2.3
O=[N+]([O-])c1cccc(O)c1 [3-NITRO-PHENOL]	2
COC(=O)[C@H]1[C@@H](c2ccc(C)cc2)C[C@@H]2CC[C@H]1N2C/C=C/CF	4.1
COC(=O)[C@H]1[C@@H](c2ccc(C)cc2)C[C@@H]2CC[C@H]1N2C/C(I)=C/C(F)(F)F	5.5
Oc1ccc2ccccc2c1 [BETANAPHTHOL]	2.7
COC(=O)[C@H]1[C@@H](c2ccc(C)cc2)C[C@@H]2CC[C@H]1N2C/C=C(\I)C(F)(F)F	5.3
c1ccc(-c2ccccc2)cc1 [BIPHENYL]	4.01

Target: Sodium-dependent noradrenaline transporter (Homo sapiens, UniProt P23975)
Test: Displacement of [3H]nisoxetine from human cloned NET receptor expressed in HEK293 cells
Type: cell-based
Conditions: not given

Chain of Sodium-dependent noradrenaline transporter (P23975 whole entry): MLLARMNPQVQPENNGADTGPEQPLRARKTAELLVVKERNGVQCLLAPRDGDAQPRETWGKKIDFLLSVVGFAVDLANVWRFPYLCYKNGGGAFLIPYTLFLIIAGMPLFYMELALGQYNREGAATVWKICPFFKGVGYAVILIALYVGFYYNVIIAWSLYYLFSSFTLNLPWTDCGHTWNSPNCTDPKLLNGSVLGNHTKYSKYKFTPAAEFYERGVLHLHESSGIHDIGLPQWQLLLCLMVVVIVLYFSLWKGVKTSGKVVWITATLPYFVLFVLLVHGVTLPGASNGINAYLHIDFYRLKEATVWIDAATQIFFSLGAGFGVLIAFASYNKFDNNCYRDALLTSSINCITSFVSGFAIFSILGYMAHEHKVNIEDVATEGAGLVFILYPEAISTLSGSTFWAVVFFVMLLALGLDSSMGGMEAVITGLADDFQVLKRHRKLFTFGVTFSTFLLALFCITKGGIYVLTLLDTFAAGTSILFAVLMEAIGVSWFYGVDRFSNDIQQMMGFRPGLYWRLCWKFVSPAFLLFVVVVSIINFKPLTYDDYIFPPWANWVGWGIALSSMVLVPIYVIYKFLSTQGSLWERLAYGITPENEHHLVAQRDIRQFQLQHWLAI

SMILES	Ki [nM]
COC(=O)[C@H]1[C@@H](c2ccc(C)cc2)C[C@@H]2CC[C@H]1N2C/C=C/I	> 500
COC(=O)[C@H]1[C@@H](c2ccc(C)cc2)C[C@@H]2CC[C@H]1N2C/C(I)=C/C(F)(F)F	188
COC(=O)[C@H]1[C@@H](c2ccc(C)cc2)C[C@@H]2CC[C@H]1N2C/C=C(\I)C(F)(F)F	426

Target: Sodium-dependent serotonin transporter (Homo sapiens, UniProt P31645)
Test: Displacement of [3H]Citalopram from human cloned SERT receptor expressed in HEK293 cells
Type: cell-based
Conditions: not given

Chain of Sodium-dependent serotonin transporter (P31645 whole entry): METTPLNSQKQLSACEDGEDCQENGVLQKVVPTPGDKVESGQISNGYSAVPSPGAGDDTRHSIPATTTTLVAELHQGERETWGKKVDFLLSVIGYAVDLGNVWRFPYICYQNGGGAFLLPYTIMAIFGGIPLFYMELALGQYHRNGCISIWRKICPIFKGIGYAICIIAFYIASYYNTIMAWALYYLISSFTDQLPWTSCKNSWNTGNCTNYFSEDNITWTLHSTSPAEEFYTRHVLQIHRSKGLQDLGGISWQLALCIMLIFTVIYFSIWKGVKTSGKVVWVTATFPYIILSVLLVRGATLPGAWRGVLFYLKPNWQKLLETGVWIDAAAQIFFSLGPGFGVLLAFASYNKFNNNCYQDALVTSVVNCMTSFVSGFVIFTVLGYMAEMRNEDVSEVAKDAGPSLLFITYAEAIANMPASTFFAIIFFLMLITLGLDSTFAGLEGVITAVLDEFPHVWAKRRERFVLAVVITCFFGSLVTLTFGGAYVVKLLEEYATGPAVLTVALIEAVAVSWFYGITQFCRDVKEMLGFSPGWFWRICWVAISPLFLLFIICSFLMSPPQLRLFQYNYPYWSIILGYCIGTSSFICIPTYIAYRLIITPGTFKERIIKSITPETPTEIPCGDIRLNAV

SMILES	Ki [nM]
COC(=O)[C@H]1[C@@H](c2ccc(C)cc2)C[C@@H]2CC[C@H]1N2C/C(I)=C/C(F)(F)F	> 1000
COC(=O)[C@H]1[C@@H](c2ccc(C)cc2)C[C@@H]2CC[C@H]1N2C/C=C(\I)C(F)(F)F	251

Organism: Homo sapiens
Test: Selectivity ratio of compound Ki for human cloned NET receptor to Ki for human DAT receptor
Conditions: not given

SMILES	Ratio Ki
COC(=O)[C@H]1[C@@H](c2ccc(C)cc2)C[C@@H]2CC[C@H]1N2C/C(I)=C/C(F)(F)F	216

Target: T1, Sodium-dependent dopamine transporter
Test: Ratio of PE2I Ki to compound Ki for human cloned DAT receptor
Conditions: not given

SMILES	Ratio Ki
COC(=O)[C@H]1[C@@H](c2ccc(C)cc2)C[C@@H]2CC[C@H]1N2C/C(I)=C/C(F)(F)F	20

Target: T2, Sodium-dependent dopamine transporter (Rattus norvegicus, UniProt P23977)
Test: Displacement of [3H]GBR-12935 from rat cloned striatal DAT receptor
Conditions: not given

T2 sequence (P23977 whole entry): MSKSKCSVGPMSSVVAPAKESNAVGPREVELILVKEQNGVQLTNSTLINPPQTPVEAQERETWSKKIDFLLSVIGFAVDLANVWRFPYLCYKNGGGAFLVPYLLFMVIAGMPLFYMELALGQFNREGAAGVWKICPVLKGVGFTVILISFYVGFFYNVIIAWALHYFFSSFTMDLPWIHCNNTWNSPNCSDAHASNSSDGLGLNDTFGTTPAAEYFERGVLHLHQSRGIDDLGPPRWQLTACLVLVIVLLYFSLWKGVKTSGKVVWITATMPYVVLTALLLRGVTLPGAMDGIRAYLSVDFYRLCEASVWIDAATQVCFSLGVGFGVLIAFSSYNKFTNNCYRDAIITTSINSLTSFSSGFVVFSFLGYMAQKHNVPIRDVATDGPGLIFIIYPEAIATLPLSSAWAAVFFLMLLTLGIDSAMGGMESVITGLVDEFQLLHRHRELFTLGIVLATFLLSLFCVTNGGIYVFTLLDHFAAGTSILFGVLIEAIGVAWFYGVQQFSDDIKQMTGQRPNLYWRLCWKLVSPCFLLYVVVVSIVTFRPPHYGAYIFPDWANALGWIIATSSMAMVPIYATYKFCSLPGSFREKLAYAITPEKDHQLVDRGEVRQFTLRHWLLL

SMILES	IC50 [nM]
COC(=O)[C@H]1[C@@H](c2ccc(I)cc2)C[C@H]2N[C@@H]1C[C@H]2C	2450
COC(=O)[C@H]1[C@@H](c2ccc(I)cc2)C[C@@H]2[C@H](C)C[C@H]1N2C	794

Target: T2, Sodium-dependent dopamine transporter
Test: Displacement of [3H]WIN35428 from rat cloned striatal DAT receptor
Conditions: not given

SMILES	IC50 [nM]	pIC50
CCOC(=O)[C@H]1[C@@H](c2ccc(Cl)cc2)C[C@@H]2CC[C@H]1N2Cc1ccc(F)cc1	7.08	–
COC(=O)C1C2CCC(C2)CC1c1ccc(Cl)c(Cl)c1 (stereo not given)	3.31	–
Cc1ccc([C@H]2C[C@@H]3CC[C@H]([C@H]2C(=O)OC/C=C/I)N3C)cc1	191	–
CCOC(=O)[C@H]1[C@@H](c2ccc(C)cc2)C[C@@H]2CC[C@H]1N2Cc1ccc(F)cc1	29.5	–
COC(=O)C1C2CCC(CC1c1ccc(Cl)c(Cl)c1)O2 (stereo not given)	9.77	–
COC(=O)[C@H]1[C@@H](c2ccccc2)C[C@@H]2CC[C@H]1N2CC#CCF	3.02	–
Cc1ccc([C@H]2C[C@@H]3CC[C@H]([C@H]2C(=O)OC/C=C\I)N3C)cc1	39.8	–
CCOc1ccc([C@H]2C[C@@H]3CC[C@H]([C@H]2C(=O)OC)N3C)cc1	–	7.04
COc1ccc([C@H]2C[C@@H]3CC[C@H]([C@H]2C(=O)OC(C)C)N3C)cc1	–	7.85
CN1[C@H]2CC[C@@H]1[C@@H](c1nc(-c3ccccc3)no1)[C@@H](c1ccc(Cl)cc1)C2	794	–
CN1[C@H]2CC[C@@H]1[C@@H](c1nnc(-c3ccccc3)o1)[C@@H](c1ccc(Cl)cc1)C2	2450	–

Organism: Homo sapiens
Test: Selectivity ratio of compound Ki for human cloned SERT receptor to Ki for human DAT receptor
Conditions: not given

SMILES	Ratio Ki
COC(=O)[C@H]1[C@@H](c2ccc(C)cc2)C[C@@H]2CC[C@H]1N2C/C(I)=C/C(F)(F)F	10000
